Common to all, as to assay type: cell-based
Data set [1] in a line: Cytotoxicity of nanocomplex using MTT assay. The note with it: CHO-K1 cells, charge ratio 10.0, treated 4 hours; read-out: cell viability. The method, then:
(§1) FIG. 3: Cell viability measured via MTT assay and CellTitreGLO assay. CHO-K1 cells and HACAT cells were treated with arginines-histidine-cysteine based peptides comprising nanocomplexes (at charge ratio 10.0) and a Lipofectamine™/Cellfectin™/Superfect™-DNA complex for 4 hours and cell viability was assessed after 24 hours. Untreated cells are taken as control and their absorbance (in the presence of MTT reagent and cell titre GLO reagent) is set as 100% and relative decrease in absorbance is taken as measure of cell viability.
(§2) CHO-K1 cells were seeded at density of 7000 cells per well in 96 well plate format in Hams F12K media containing 10% FBS at 37° C. and 5% CO2 in humidified incubator. After 24 hours cells were washed with serum free media and treated with different nanocomplex at Z=10.0 (in quadruplets) for 4 hours, keeping DNA concentration 200 ng/well. The viability was assayed after 4 hrs and 24 hrs (in the latter case nanocomplex containing media was replaced with complete media after 4 hrs) of transfection. Briefly 100 ul of MTT reagent (0.5 mg/ml) was added to each well and incubated at 37° C. for 2 hrs to allow formation of formazan crystals. […] Following incubation 100 ul MTT detergent buffer (0.5 ml 10% SDS and 0.06 ml 12N HCl in 10 ml isopropanol) was added to each well and crystals were dissolved by gentle shaking for 30 mins. Finally the absorbance was recorded at 550 nm and 670 nm (to negate debris) along with the blank using ELISA plate reader. The percentage viability was calculated by Treated wells (OD550−OD670)/Untreated well (OD550−OD670)*100. The average of two independent experiments is plotted where each treatment is performed in quadruplets.

For another data set, the system named is CHO-K1 cells. The data set is described as follows: Cytotoxicity of nanocomplex using MTT assay. The method, then: as §1, §2
Data set [2] has as its system CHO-K1 cells and HACAT cells. The data set is described as follows: Cell viability / cytotoxicity, cell line not stated (MTT and CellTitreGLO). The note with it: cell line not stated. The method, then:
as §1
CHO-K1 cells were seeded at density of 7000 cells per well in 96 well plate format in Hams F12K media containing 10% FBS at 37° C. and 5% CO2 in humidified incubator. […] Finally the absorbance was recorded at 550 nm and 670 nm (to negate debris) along with the blank using ELISA plate reader. The percentage viability was calculated by Treated wells (OD550−OD670)/Untreated well (OD550−OD670)*100. […]
The experiment was performed in 96 well plate format wherein the Hacat cells were seeded at 50000 cells per well in DMEM-F12 media containing 10% FBS at 37° C. and 5% CO2 in humidified incubator. […] The plate was then kept in dark for 10 mins at RT for stabilization of the luminescence signal. The reading was recorded on Tecan system and plotted as % cell viability.

For the next data set, the system named is Hacat cells. The data set is described as follows: Cytotoxicity estimation using Celltitre GLO method. On the procedure:
as §1
(§3) The experiment was performed in 96 well plate format wherein the Hacat cells were seeded at 50000 cells per well in DMEM-F12 media containing 10% FBS at 37° C. and 5% CO2 in humidified incubator. After 24 hours cells were washed with serum free media and treated with nanocomplex at Z=10.0 (in quadruplets) for 4 hours, keeping DNA concentration 200 ng/well. The viability was assayed after 4 hrs and 24 hrs (in the latter case nanocomplex containing media was replaced with complete media after 4 hrs) of transfection. Initially the plate was equilibrated for 30 mins at RT followed by addition of 100 ul of cell titre GLO reagent with continuous shaking on rotor for 2 mins to allow cell lysis. The plate was then kept in dark for 10 mins at RT for stabilization of the luminescence signal. The reading was recorded on Tecan system and plotted as % cell viability.

A short description of data set [3]: Cytotoxicity estimation using Celltitre GLO method. The note with it: human; Hacat cells, charge ratio 10.0, treated 4 hours; read-out: cell viability. The method, then: as §1, §3

Where a SMILES comes first, the peptide text is derived from it.

We go through two molecules from patent US9572893B2, “Nanocomplex containing cationic peptide for biomolecule delivery” (Council of Scientific and Industrial Research, priority 2012, dated 2017).

Turning to `N=C(N)NCCC[C@H](NC(=O)[C@H](Cc1c[nH]cn1)NC(=O)[C@H](CCCNC(=N)N)NC(=O)[C@H](Cc1c[nH]cn1)NC(=O)[C@H](CCCNC(=N)N)NC(=O)[C@H](Cc1c[nH]cn1)NC(=O)[C@H](CCCNC(=N)N)NC(=O)[C@H](Cc1c[nH]cn1)NC(=O)[C@H](CCCNC(=N)N)NC(=O)[C@H](Cc1c[nH]cn1)NC(=O)[C@H](CCCNC(=N)N)NC(=O)[C@H](Cc1c[nH]cn1)NC(=O)[C@H](CCCNC(=N)N)NC(=O)[C@H](Cc1c[nH]cn1)NC(=O)[C@H](CCCNC(=N)N)NC(=O)[C@H](CCCNC(=N)N)NC(=O)[C@@H](N)CS)C(=O)N[C@@H](CS)C(=O)O` [CR(RH)7RC, CRRHRHRHRHRHRHRHRC] (H-CRRHRHRHRHRHRHRHRC-OH), the viability at 4 h in data set [1] was 70 to 80%; in data set [3], 80 to 90%. The “cell viability compared to Cellfectin and Superfect transfection agents” value in the data set on CHO-K1 cells is listed as “comparable”. Also, the cytotoxicity result in data set [2] is given as “minimal”. The “cell viability compared to Cellfectin” value in the data set on Hacat cells is recorded as “comparable”.

For the molecule `N=C(N)NCCC[C@H](NC(=O)[C@H](CCCNC(=N)N)NC(=O)[C@H](CCCNC(=N)N)NC(=O)[C@H](CCCNC(=N)N)NC(=O)[C@H](Cc1c[nH]cn1)NC(=O)[C@H](Cc1c[nH]cn1)NC(=O)[C@H](Cc1c[nH]cn1)NC(=O)[C@H](Cc1c[nH]cn1)NC(=O)[C@H](CCCNC(=N)N)NC(=O)[C@H](CCCNC(=N)N)NC(=O)[C@H](CCCNC(=N)N)NC(=O)[C@H](CCCNC(=N)N)NC(=O)[C@H](CCCNC(=N)N)NC(=O)[C@@H](N)CS)C(=O)N[C@@H](Cc1c[nH]cn1)C(=O)N[C@@H](Cc1c[nH]cn1)C(=O)N[C@@H](Cc1c[nH]cn1)C(=O)N[C@@H](CS)C(=O)O` [CR5H4R4H3C, CRRRRRHHHHRRRRHHHC] (H-CRRRRRHHHHRRRRHHHC-OH), the viability at 4 h in data set [1] and in data set [3] was 80 to 90% in each case. Further, the “cell viability compared to Cellfectin and Superfect transfection agents” value in the data set on CHO-K1 cells is reported as “comparable”. In addition, the cytotoxicity entry in data set [2] is “minimal”. For the same molecule, the “cell viability compared to Cellfectin” value in the data set with Hacat cells is listed as “comparable”.
